# Results as given in patent publication US4107202A, “Substituted 4,4'-biphenylylene bis(2-thioureylene)di-naphthalenetrisulfonic acids and salts thereof” (American Cyanamid Company, priority 1977, dated 1978).
# Structures can show the parent of a compound that is named as a salt.
# What was measured:
# [1] = The New England Journal of Medicine, 286, 808-812 (1972); cited from earlier work
# shunt pathway = assay: Test, Code 036 (C-Shunt inhibitor): lysis of fragile human erythrocytes in autologous serum via the shunt pathway activated by cobra venom factor; assay type: cell-based; design: key: Negative; conditions: activity in wells, two-fold serial dilution assay
# [2] = tested on: late components of human complement (C3-C9); assay: Test, Code 035 (C3-C9 inhibitor): lysis of EAC 142 by late components of human complement; assay type: cell-based; design: key: Negative; conditions: activity in wells, two-fold serial dilution assay
# whole complement = assay: Complement Level Reduction Test: whole complement in serum of dosed guinea pigs, capillary tube assay; assay type: in vivo, guinea pig; conditions: 200 mg/kg
# Text: An active inhibitor protects C2 from C1 and C4; (ii) Test, Code 035 (C3-C9 inhibitor) -- This test determines the ability of the late components of human complement (C3-C9) to lyse EAC 142 in the presence of appropriate dilutions of the test compound. An active inhibitor protects EAC 142 from lysis by C3-C9; (iii) Test, Code 036 (C-Shunt inhibitor) -- In this test human erythrocytes rendered fragile are lysed in autologous serum via the shunt pathway activated by cobra venom factor in the presence of appropriate dilutions of the test compound. Inhibition of the shunt pathway results in failure of lysis; (iv) Forssman Vasculitis Test -- Here, the well known complement dependent lesion, Forssman vasculitis, is produced in guinea pigs by intradermal injection of rabbit anti-Forssman antiserum. The lesion is measured in terms of diameter, edema and hemorrhage and the extent to which a combined index of these is inhibited by prior intraperitoneal injection of the test compound at 200 mg/kg is then reported, unless otherwise stated; (v) Forssman Shock Test -- Lethal shock is produced in guinea pigs by an i.v. injection of anti-Forssman antiserum and the harmonic mean death time of treated guinea pigs is compared with that of simultaneous controls; (vi) Complement Level Reduction Test -- In this test, the above dosed guinea pigs, or others, are bled for serum and the complement level is determined in undiluted serum by the capillary tube method of U.S. Pat. No. 3,876,376 and compared to undosed control guinea pigs; and (vii) Cap 50 Test -- Here, appropriate amounts of the test compound are added to a pool of guinea pig serum in vitro, after which the undiluted serum capillary tube assay referred to above is run. The concentration of compound inhibiting 50% is reported.
# With reference to Table I, guinea pigs weighing about 300 g were dosed intravenously (i.v.) or intraperitoneally (i.p.) with 200 mg/kg of the test compound dissolved in saline and adjusted to pH 7-8. One hour after dosing, the guinea pigs were decapitated, blood was collected and the serum separated. The serum was tested for whole complement using the capillary tube assay. Percent inhibition was calculated by comparison with simultaneous controls. The results appear in Table I together with results of tests, code 026, 035, 036, Cap 50, % inhibition and Forssman shock.
# complement system = conditions: reported in literature; cited from earlier work
molecule,measurement,setting,value
NCCCCCC(=O)O [epsilon-aminocapronic acid],use in the treatment of hereditary angioneurotic edema,[1],used with success
"O=S(=O)(O)c1cc(NC(=S)Nc2ccc(-c3ccc(NC(=S)Nc4cc(S(=O)(=O)O)cc5cc(S(=O)(=O)O)cc(S(=O)(=O)O)c45)cc3S(=O)(=O)O)c(S(=O)(=O)O)c2)c2c(S(=O)(=O)O)cc(S(=O)(=O)O)cc2c1 [8,8'-[(2,2'-Disulfo-4,4'-biphenylylene)bis(2-thioureylene)]di-1,3,6-naphthalenetrisulfonic acid octasodium salt]",Shunt Inhibition 036 Wells,shunt pathway,N
same,C-Late 035 Wells,[2],N
same,In Vivo Activity (Guinea Pig) % Inhibition,"whole complement; intraperitoneal, 30 min",-55%
same,In Vivo Activity (Guinea Pig) % Inhibition,"whole complement; intraperitoneal, 60 min",-55%
same,In Vivo Activity (Guinea Pig) % Inhibition,"whole complement; intraperitoneal, 120 min",-70%
same,In Vivo Activity (Guinea Pig) % Inhibition,"whole complement; intravenous, 2 min",-92%
same,In Vivo Activity (Guinea Pig) % Inhibition,"whole complement; intravenous, 30 min",-46%
same,In Vivo Activity (Guinea Pig) % Inhibition,"whole complement; intravenous, 120 min",-31%
NC[C@H]1CC[C@H](C(=O)O)CC1 [tranexamic acid],use in the treatment of hereditary angioneurotic edema,[1],used with success
"Nc1ccc2cc(S(=O)(=O)O)cc(O)c2c1N=Nc1ccc(NC(=O)Nc2ccc(N=Nc3c(N)ccc4cc(S(=O)(=O)O)cc(O)c34)c(S(=O)(=O)O)c2)cc1S(=O)(=O)O [chlorazol fast pink, 3,3'-ureylenebis-[6-(2-amino-8-hydroxy-6-sulfo-1-naphthylazo)]benzenesulfonic acid, tetrasodium salt]",complement inhibiting / anticomplementary effect,complement system,anticomplementary effect
heparin,complement inhibiting / anticomplementary effect,complement system,anticomplementary effect
Cc1ccc(C(=O)Nc2ccc(S(=O)(=O)O)c3cc(S(=O)(=O)O)cc(S(=O)(=O)O)c23)cc1NC(=O)c1cccc(NC(=O)Nc2cccc(C(=O)Nc3cc(C(=O)Nc4ccc(S(=O)(=O)O)c5cc(S(=O)(=O)O)cc(S(=O)(=O)O)c45)ccc3C)c2)c1 [Suramin],complement inhibiting / anticomplementary effect,complement system,competitive inhibitor of the complement system
